The target in the assay is α-glucosidase (Maltase EC 3.2.1.20). Put plainly: PNPG hydrolysis enzyme inhibition assay, absorbance at […] nm. Format: biochemical.

Molecules are shown by their SMILES.

A word on the IC50: it is the point on the concentration scale where inhibition reaches its midpoint.

`Oc1cc(O)c2c(c1)O[C@@]1(c3ccc(O)c(O)c3)Oc3cc(O)c4c(c3[C@@H]2[C@H]1O)O[C@H](c1ccc(O)c(O)c1)[C@H](O)C4` [PCA2, Procyanidin A2] gave an IC50 of 460 ± 10 nM.

Source of the values: article PMC9064588 (RSC Advances, 2019).
